Results on one compound are retold here after patent US12492367B2, “Sensor chip capable of culturing cells and of analyzing cell-derived substance, and cell activity quantitative analysis method using the same” (AJOU UNIVERSITY INDUSTRY-ACADEMIC COOPERATION FOUNDATION, priority 2020, dated 2025).

The subject of assay [1] is RAW 264.7 cells. As to the kind of experiment: Cyclic voltammetry measurement of hydrogen peroxide secreted into the cell culturing liquid after PMA treatment (HRP carbon paste work electrode). It counts as cell-based, murine. Particulars: 16 μM PMA; CV 0 V to −1 V, reduction current at −400 mV; calibration curve; FIG. 4-6. How it is done:
(§1) After introducing the sensor chip into an autoclave, the sensor chip was autoclaved at a temperature of 120° C. for […]. Thereafter, RAW 264.7 cells as a murine macrophage cell line were inoculated into a cell culturing compartment containing the culturing liquid of the sterilized sensor chip, and then were cultured for 24 hours to adhere the cells to a surface of the culturing compartment. In this regard, Dulbecco's modified eagle medium (DMEM), 10% fetal bovine serum, and 5% penicillin streptomycin were added to the culturing liquid, and then culturing of the cells was carried out at 37° C., and under a 5% CO2 concentration condition.
After identifying that the cells were adhered to the surface of the culturing compartment, 16 μM of PMA was added to the culturing liquid to chemically activate the cells, and change in the cell shape was observed (FIGS. 4-1 and 4-2). In this regard, PMA used as the chemical stimulant acts as a strong tumor promoter and is a chemical that induces cell growth, differentiation, and immune response when the PMA is added to the culturing liquid. […]
For this purpose, a calibration curve (FIG. 4-5) was obtained based on the CV results measured while hydrogen peroxide having varying concentrations was added to the cell culturing liquid. […]

Assay [2] has as its system RAW 264.7 cells. As to the kind of experiment: Observation of cell shape change of RAW 264.7 cells after PMA treatment in the sensor chip. It counts as cell-based, murine. The following applies: 16 μM PMA added to culturing liquid; RAW 264.7 cells adhered after 24 hours culture; FIGS. 4-1 and 4-2. As to the method:
as §1
After identifying that the cells were adhered to the surface of the culturing compartment, 16 μM of PMA was added to the culturing liquid to chemically activate the cells, and change in the cell shape was observed (FIGS. 4-1 and 4-2). In this regard, PMA used as the chemical stimulant acts as a strong tumor promoter and is a chemical that induces cell growth, differentiation, and immune response when the PMA is added to the culturing liquid. When the external stimulating substance such as the PMA is added to the culturing liquid, the immune cells recognize the external stimulating substance as an external stimulus such that the activation of the cells is induced.

As to `CCCCCCCCCCCCCC(=O)O[C@@H]1[C@@H](C)[C@@]2(O)[C@@H](C=C(CO)C[C@]3(O)C(=O)C(C)=C[C@@H]23)[C@@H]2C(C)(C)[C@]12OC(C)=O` [PMA, phorbol 12-myristate 13-acetate], the “concentration of hydrogen peroxide secreted from the cells over time after the PMA treatment” value in the assay with RAW 264.7 cells [1] is on record as “concentration of hydrogen peroxide secreted from the cells also increases”. For the same compound, the “change in the cell shape after the PMA treatment” value with RAW 264.7 cells [2] is reported as “cell shape changed into an atypical shape”.
